Results on two compounds are retold here after ChEMBL document CHEMBL3853314, “G-Protein-Coupled Receptor Kinase 2 (GRK2) Inhibitors: Current Trends and Future Perspectives” (J Med Chem, 2016).

Peptide text beside a SMILES is read from it.

In assay [1] the target is T1, Rhodopsin kinase GRK1 (Bos taurus, UniProt P28327).
T1 sequence (P28327 whole entry): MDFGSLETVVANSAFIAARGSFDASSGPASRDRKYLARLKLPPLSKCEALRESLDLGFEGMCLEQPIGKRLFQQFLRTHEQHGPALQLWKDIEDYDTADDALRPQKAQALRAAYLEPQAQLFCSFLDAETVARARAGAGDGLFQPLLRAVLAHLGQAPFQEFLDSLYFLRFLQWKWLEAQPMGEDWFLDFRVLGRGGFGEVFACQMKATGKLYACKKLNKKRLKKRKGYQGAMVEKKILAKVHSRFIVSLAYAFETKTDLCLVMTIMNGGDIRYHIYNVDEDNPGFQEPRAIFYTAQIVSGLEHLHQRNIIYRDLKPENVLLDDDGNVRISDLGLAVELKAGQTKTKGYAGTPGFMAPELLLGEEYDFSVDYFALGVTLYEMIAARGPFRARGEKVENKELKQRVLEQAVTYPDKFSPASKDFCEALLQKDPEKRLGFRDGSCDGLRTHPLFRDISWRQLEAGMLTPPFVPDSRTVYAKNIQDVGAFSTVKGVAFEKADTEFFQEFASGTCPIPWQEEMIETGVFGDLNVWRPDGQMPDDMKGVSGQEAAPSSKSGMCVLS
Kind of assay: Inhibition of bovine C-terminal truncated GRK1 (535 residues) assessed as decrease in phosphorylation of urea-washed bovine rod outer segments preincubated for 30 mins followed by ATP addition and light exposure measured after 5 to 10 mins by SDS-PAGE analysis.

Assay [2] concerns the target T2, cGMP-dependent protein kinase 1 (Homo sapiens, UniProt Q13976).
T2 sequence (Q13976 whole entry): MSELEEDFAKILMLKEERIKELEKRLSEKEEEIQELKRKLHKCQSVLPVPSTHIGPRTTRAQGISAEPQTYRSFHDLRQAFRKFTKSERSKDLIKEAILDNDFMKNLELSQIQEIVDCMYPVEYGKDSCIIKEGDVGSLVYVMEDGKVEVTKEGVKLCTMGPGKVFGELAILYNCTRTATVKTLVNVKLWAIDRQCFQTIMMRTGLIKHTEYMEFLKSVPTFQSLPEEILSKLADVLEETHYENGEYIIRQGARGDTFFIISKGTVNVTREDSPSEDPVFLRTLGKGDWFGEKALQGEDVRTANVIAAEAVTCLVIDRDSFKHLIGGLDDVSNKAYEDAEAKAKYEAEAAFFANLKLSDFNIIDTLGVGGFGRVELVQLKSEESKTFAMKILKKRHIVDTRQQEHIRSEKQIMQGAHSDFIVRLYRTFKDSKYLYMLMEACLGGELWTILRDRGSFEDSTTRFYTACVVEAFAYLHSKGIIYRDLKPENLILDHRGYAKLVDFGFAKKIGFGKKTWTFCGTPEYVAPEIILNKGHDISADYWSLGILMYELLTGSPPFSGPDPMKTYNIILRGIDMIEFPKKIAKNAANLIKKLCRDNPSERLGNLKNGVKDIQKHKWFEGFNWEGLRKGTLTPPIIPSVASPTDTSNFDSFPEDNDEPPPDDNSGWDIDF
Description: Binding affinity to human recombinant N-terminal GST-tagged PKGalpha expressed in Baculovirus infected insect Sf9 cells using RKRSRAE as substrate in presence of [gamma-32P]ATP.

For assay [3], the target named is Protein kinase C alpha type (Homo sapiens, UniProt P17252). Kind of assay: Binding affinity to PKCalpha (unknown origin) using Lys-Arg-Thr-Leu-Arg-Arg as substrate after 8 mins in presence of [gamma-32P]ATP by liquid scintillation spectrometry.
The target in assay [4] is Protein kinase C beta type (Homo sapiens, UniProt P05771). Kind of assay: Binding affinity to PKCbeta2 (unknown origin) using Lys-Arg-Thr-Leu-Arg-Arg as substrate after 8 mins in presence of [gamma-32P]ATP by liquid scintillation spectrometry.
Sequence of Protein kinase C beta type (P05771 whole entry): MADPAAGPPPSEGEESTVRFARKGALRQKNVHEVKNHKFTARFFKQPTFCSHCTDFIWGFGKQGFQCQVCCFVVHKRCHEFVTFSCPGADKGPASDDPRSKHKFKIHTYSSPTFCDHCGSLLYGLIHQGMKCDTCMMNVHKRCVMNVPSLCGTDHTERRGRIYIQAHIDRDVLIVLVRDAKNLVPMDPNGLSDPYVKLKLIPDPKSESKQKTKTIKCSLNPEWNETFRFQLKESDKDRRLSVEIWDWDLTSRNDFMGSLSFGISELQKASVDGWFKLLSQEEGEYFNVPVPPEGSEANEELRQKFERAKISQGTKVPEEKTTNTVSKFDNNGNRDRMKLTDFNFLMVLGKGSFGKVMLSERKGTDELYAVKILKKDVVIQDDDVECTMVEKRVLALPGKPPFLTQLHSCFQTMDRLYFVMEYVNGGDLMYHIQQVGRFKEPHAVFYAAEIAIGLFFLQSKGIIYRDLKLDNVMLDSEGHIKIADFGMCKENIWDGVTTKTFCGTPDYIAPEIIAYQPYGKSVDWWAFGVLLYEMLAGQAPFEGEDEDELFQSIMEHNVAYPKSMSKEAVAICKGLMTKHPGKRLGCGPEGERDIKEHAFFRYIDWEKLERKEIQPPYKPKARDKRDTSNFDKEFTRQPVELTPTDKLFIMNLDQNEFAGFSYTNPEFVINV
Assay [5] concerns the target T3, Beta-adrenergic receptor kinase 1 (Bos taurus, UniProt P21146).
T3 sequence (P21146 whole entry): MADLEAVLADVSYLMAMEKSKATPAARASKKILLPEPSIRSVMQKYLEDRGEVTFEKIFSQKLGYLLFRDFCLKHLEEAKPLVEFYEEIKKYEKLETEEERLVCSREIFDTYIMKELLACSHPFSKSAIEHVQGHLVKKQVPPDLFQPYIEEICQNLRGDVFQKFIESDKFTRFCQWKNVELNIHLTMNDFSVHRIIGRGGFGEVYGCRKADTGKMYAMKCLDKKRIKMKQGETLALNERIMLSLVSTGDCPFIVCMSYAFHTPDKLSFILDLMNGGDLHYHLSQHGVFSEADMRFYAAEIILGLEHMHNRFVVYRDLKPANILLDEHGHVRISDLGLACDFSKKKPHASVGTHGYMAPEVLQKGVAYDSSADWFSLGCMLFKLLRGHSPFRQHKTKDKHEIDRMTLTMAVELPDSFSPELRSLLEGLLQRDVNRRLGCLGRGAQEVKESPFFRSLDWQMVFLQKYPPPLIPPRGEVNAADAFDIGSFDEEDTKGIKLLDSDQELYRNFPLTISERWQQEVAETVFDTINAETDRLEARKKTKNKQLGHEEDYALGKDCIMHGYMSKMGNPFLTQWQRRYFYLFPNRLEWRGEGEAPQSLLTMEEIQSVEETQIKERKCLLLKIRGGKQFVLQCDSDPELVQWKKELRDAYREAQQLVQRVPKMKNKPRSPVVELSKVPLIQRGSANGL
Description: Inhibition of bovine cerebral cortex GRK2 assessed as decrease in phosphorylation of beta-adrenoceptor in presence of [gamma-32P]-ATP by SDS-PAGE analysis.

The IC50 is the concentration at which inhibition is half-maximal. For orientation: Kd means the concentration at which binding is half-saturated.

For the compound `O=C(N[C@@H]1CNCCC[C@H]1OC(=O)c1cc(O)c(C(=O)c2c(O)cccc2C(=O)O)c(O)c1)c1ccc(O)cc1` [BALANOL], in assay [1], the IC50 is 4.1 µM. The Kd in assay [2] is 0.0016 µM; in assay [3], 0.0064 µM; in assay [4] it was 0.0018 µM.
With `CC(C)C[C@H](NC(=O)[C@H](CCCNC(=N)N)NC(=O)[C@H](CCC(=O)O)NC(=O)[C@H](Cc1ccccc1)NC(=O)[C@H](CCCCN)NC(=O)[C@H](C)N)C(=O)N[C@@H](CCC(N)=O)C(=O)N[C@H](C(=O)N[C@H](C(=O)N[C@H](C(=O)N[C@@H](CC(N)=O)C(=O)O)[C@@H](C)O)C(C)C)[C@@H](C)O` (H-AKFERLQTVTN-OH), the IC50 in assay [5] was found to be 1600 µM.
